Results taken from patent US11981677B2, “Further substituted triazolo quinoxaline derivatives” (Grünenthal GmbH, priority 2018, dated 2024).

The compounds below were run against T1, Glucocorticoid Receptor (Homo sapiens, UniProt P04150) (assay: Agonistic mode of action on the glucocorticoid receptor (CHO-Gal4/GR luciferase reporter cell line)). Settings: CHO-Gal4/GR luciferase reporter cells; observed in the agonistic assay or the antagonistic assay (mode not given); read-out: IC50 or EC50 range.
T1 construct: expressed in transfected cells
T1 sequence (P04150 524-758 limits assumed): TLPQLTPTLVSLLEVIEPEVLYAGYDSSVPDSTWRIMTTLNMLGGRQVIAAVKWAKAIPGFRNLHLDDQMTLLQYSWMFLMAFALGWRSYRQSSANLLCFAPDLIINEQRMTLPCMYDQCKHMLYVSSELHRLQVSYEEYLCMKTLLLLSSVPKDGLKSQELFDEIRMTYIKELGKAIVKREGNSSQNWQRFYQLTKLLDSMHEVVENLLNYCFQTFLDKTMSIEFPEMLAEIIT
Assay type: cell-based
From the text: Potential selective glucocorticoid receptor modulators of this intervention can be tested for modulation of the activity of the glucocorticoid receptor using cell-based assays. These assays involve a Chinese hamster ovary (CHO) cell line which contains fragments of the glucocorticoid receptor as well as fusion proteins. The glucocorticoid receptor fragments used are capable of binding the ligand (e.g. beclomethasone) to identify molecules that compete for binding with glucocorticoid receptor ligands. In more detail, the glucocorticoid receptor ligand binding domain is fused to the DNA binding domain (DBD) of the transcriptionfactor GAL4 (GAL4 DBD-GR) and is stably integrated into a CHO cell line containing a GAL4-UAS-Luciferase reporter construct. […] After cell lysis the luminescence that is produced by luciferase after addition of the substrate is detected and EC50 or IC50 values can be calculated. Engagement of molecules which induce gene expression via glucocortocoid receptor binding to the DNA leads to expression of the luciferase gene under the control of the fusion protein GAL4 DBD-GR and therefore to a dose-dependent increase of the luminescence signal. Binding of molecules which repress beclomethasone-induced gene expression of the luciferase gene under the control of the fusion protein GAL4 DBD-GR leads to a dose-dependent reduction of the luminescence signal.
The reporter cell line CHO-Gal4/GR consisted of a chinese hamster ovary (CHO) cell line (Leibniz Institute DSMZ—German Collection of Microorganisms and Cell Cultures GmbH: ACC-110) containing a firefly luciferase gene under the control of the GR ligand binding domain fused to the DNA binding domain (DBD) of GAL4 (GAL4 DBD-GR) stably integrated into CHO cells. This cell line was established by stable transfection of CHO cells with a GAL4-UAS-Luciferase reporter construct. In a subsequent step the ligand binding domain of the GR cloned into pIRES2-EGFP-GAL4 containing the DNA binding domain of GAL4 from pFA-AT2 was transfected. This fusion construct activated firefly luciferase expression under the control of a multimerized GAL4 upstream activation sequence (UAS). The signal of the emitted luminescence was recorded by the FLIPR^TETRA. This allowed for specific detection of ligand-induced activation of the GR and therefore for the identification of compounds with agonistic properties. The GAL4/UAS reporter was premixed with a vector that constitutively expressed Renilla luciferase, which served as an internal positive control for transfection efficiency.
The complete culture medium for the assay was: • DMEM F-12 (1:1) MIXTURE (LONZA cat. No: BE04-687F/U1) 500 mL • 5 mL of 100 mM Sodium Pyruvate (LONZA cat. No: BE12-115E) • 25 mL of 7.5% Sodium Bicarbonate (LONZA cat. No BE17-613E) • 6.5 mL of 1 M Hepes (LONZA cat. No: BE17-737E) • 5 mL of 100× Penicillin/Streptomycin (LONZA cat. No DE17-602E) • 50 mL of Fetal Bovine Serum (Euroclone cat. No ECS 0180L) • 0.25 mL of 10 mg/mL Puromycin (InvivoGen cat.: ant-pr-1) • 0.5 mL of 100 mg/mL Zeocin (InvivoGen cat.: ant-zn-1)
Cryo-preserved CHO-Gal4/GR cells were suspended in complete medium and 5000 cells/25 μl/well were seeded into the wells of 384-well polystyrene assay plates (Thermo Scientific, cat. #4332) and cultured at 37° C., 5% CO2 and 95% humidity. After 24 hours growth medium was carefully removed and replaced by 30111 Opti-MEM (GIBCO, cat. #31985062) as assay buffer. To test the compounds an 8-point half-log compound dilution curve was generated in 100% DMSO starting from a 2 mM stock and compounds were then diluted 1:50 in Opti-MEM. 10111 of compounds were then added to the wells containing 30 μl Opti-MEM resulting in a final assay concentration range from 10 μM to 0.003 μM in 0.5% DMSO. Compounds were tested at 8 concentrations in quadruplicate data points. […] Finally, cells were lysed with 20 μl of Triton/Luciferin solution and the signal of the emitted luminescence was recorded at the FLIPR^TETRA for 2 minutes. […]
CCc1nnc2n1-c1c(C)c(-c3cc(F)cc4c(C)c[nH]c34)cc(F)c1NC2(C)C [Example 316, 1-Ethyl-6-fluoro-8-(5-fluoro-3-methyl-1H-indol-7-yl)-4,4,9-trimethyl-5H-[1,2,4]triazolo[4,3-a]quinoxaline] was tested, and the IC50 or EC50 (antagonist or agonist mode, not stated per compound) was 100 to 1000 nM.
Work on CCc1nnc2n1-c1c(C)c(-c3cc(F)cc4c3ccn4S(C)(=O)=O)cc(F)c1NC2(C)C [Example 323, 1-Ethyl-6-fluoro-8-(6-fluoro-1-methylsulfonyl-1H-indol-4-yl)-4,4,9-trimethyl-5H-[1,2,4]triazolo[4,3-a]quinoxaline] yielded an IC50 or EC50 (antagonist or agonist mode, not stated per compound) of 100 to 1000 nM.
Compound Cc1c(-c2cccc3c2ccn3CC(F)F)cc(F)c2c1-n1c(C)nnc1C(C)(C)N2 [Example 326, 8-[1-(2,2-Difluoro-ethyl)-1H-indol-4-yl]-6-fluoro-1,4,4,9-tetramethyl-5H-[1,2,4]triazolo[4,3-a]quinoxaline] has an IC50 or EC50 (antagonist or agonist mode, not stated per compound) of 100 to 1000 nM.
Cc1c(-c2cc(F)cc3c2cnn3S(C)(=O)=O)cc(F)c2c1-n1c(C)nnc1C(C)(C)N2 [Example 340, 6-Fluoro-8-(6-fluoro-1-methylsulfonyl-1H-indazol-4-yl)-1,4,4,9-tetramethyl-5H-[1,2,4]triazolo[4,3-a]quinoxaline] was tested, and the IC50 or EC50 (antagonist or agonist mode, not stated per compound) was 100 to 1000 nM.
Cc1c(-c2cccc3c2ccn3S(=O)(=O)CF)cc(F)c2c1-n1c(C)nnc1C(C)(C)N2 [Example 349, 6-Fluoro-8-[1-(fluoro-methylsulfonyl)-1H-indol-4-yl]-1,4,4,9-tetramethyl-5H-[1,2,4]triazolo[4,3-a]quinoxaline] gave an IC50 or EC50 (antagonist or agonist mode, not stated per compound) of 100 to 1000 nM.
CCS(=O)(=O)n1ccc2c(-c3cc(F)c4c(c3C)-n3c(C)nnc3C(C)(C)N4)cccc21 [Example 350, 8-[1-(Ethylsulfonyl)-1H-indol-4-yl]-6-fluoro-1,4,4,9-tetramethyl-5H-[1,2,4]triazolo[4,3-a]quinoxaline] was tested, and the IC50 or EC50 (antagonist or agonist mode, not stated per compound) was under 100 nM.
Compound Cc1c(-c2cccc3c(C)n[nH]c23)cc(F)c2c1-n1c(C)nnc1C(C)(C)N2 [Example 352, 6-Fluoro-1,4,4,9-tetramethyl-8-(3-methyl-1H-indazol-7-yl)-5H-[1,2,4]triazolo[4,3-a]quinoxaline] has an IC50 or EC50 (antagonist or agonist mode, not stated per compound) of 100 to 1000 nM.
Work on CCc1nnc2n1-c1c(C)c(-c3cccc4c(C)c[nH]c34)cc(F)c1NC2(C)C [Example 355, 1-Ethyl-6-fluoro-4,4,9-trimethyl-8-(3-methyl-1H-indol-7-yl)-5H-[1,2,4]triazolo[4,3-a]quinoxaline] yielded an IC50 or EC50 (antagonist or agonist mode, not stated per compound) of 100 to 1000 nM.
Cc1c(-c2cccc3c2ccn3S(=O)(=O)C(C)C)cc(F)c2c1-n1c(C)nnc1C(C)(C)N2 [Example 366, 6-Fluoro-8-[1-(isopropylsulfonyl)-1H-indol-4-yl]-1,4,4,9-tetramethyl-5H-[1,2,4]triazolo[4,3-a]quinoxaline] was tested, and the IC50 or EC50 (antagonist or agonist mode, not stated per compound) was 1000 to 15000 nM.
Work on Cc1c(-c2cccc3c2ccn3CCN(C)C)cc(F)c2c1-n1c(C)nnc1C(C)(C)N2 [Example 375, [2-[4-(6-Fluoro-1,4,4,9-tetramethyl-5H-[1,2,4]triazolo[4,3-a]quinoxalin-8-yl)-1H-indol-1-yl]-ethyl]-dimethyl-amine] yielded an IC50 or EC50 (antagonist or agonist mode, not stated per compound) of 100 to 1000 nM.
Compound Cc1c(-c2cccc3c2cnn3S(C)(=O)=O)cc(F)c2c1-n1c(C)nnc1C(C)(C)N2 [Example 378, 6-Fluoro-1,4,4,9-tetramethyl-8-(1-methylsulfonyl-1H-indazol-4-yl)-5H-[1,2,4]triazolo[4,3-a]quinoxaline] has an IC50 or EC50 (antagonist or agonist mode, not stated per compound) of 1000 to 15000 nM.
Cc1c(-c2cccc3c2ccn3S(=O)(=O)C2CC2)cc(F)c2c1-n1c(C)nnc1C(C)(C)N2 [Example 391, 8-[1-(Cyclopropylsulfonyl)-1H-indol-4-yl]-6-fluoro-1,4,4,9-tetramethyl-5H-[1,2,4]triazolo[4,3-a]quinoxaline] gave an IC50 or EC50 (antagonist or agonist mode, not stated per compound) of under 100 nM.
In the case of CCS(=O)(=O)n1ccc2c(-c3c(C)c4c(c(F)c3F)NC(C)(C)c3nnc(C)n3-4)cc(F)cc21 [Example 446, 8-(1-(ethylsulfonyl)-6-fluoro-1H-indol-4-yl)-6,7-difluoro-1,4,4,9-tetramethyl-4,5-dihydro-[1,2,4]triazolo[4,3-a]quinoxaline], the IC50 or EC50 (antagonist or agonist mode, not stated per compound) is reported as under 100 nM.
Cc1c(-c2cc(F)cc3c2ccn3S(C)(=O)=O)c(F)c(F)c2c1-n1c(C)nnc1C(C)(C)N2 [Example 447, 6,7-Difluoro-8-(6-fluoro-1-methylsulfonyl-1H-indol-4-yl)-1,4,4,9-tetramethyl-5H-[1,2,4]triazolo[4,3-a]quinoxaline] was tested, and the IC50 or EC50 (antagonist or agonist mode, not stated per compound) was under 100 nM.
In the case of Cc1c(-c2cccc3c2ccn3S(C)(=O)=O)c(F)c(F)c2c1-n1c(C)nnc1C(C)(C)N2 [Example 448, 6,7-difluoro-1,4,4,9-tetramethyl-8-(1-(methylsulfonyl)-1H-indol-4-yl)-4,5-dihydro-[1,2,4]triazolo[4,3-a]quinoxaline], the IC50 or EC50 (antagonist or agonist mode, not stated per compound) is reported as under 100 nM.
In the case of Cc1c(-c2cc(F)cc3c2ccn3CCO)c(F)c(F)c2c1-n1c(C)nnc1C(C)(C)N2 [Example 449, 2-[4-(6,7-Difluoro-1,4,4,9-tetramethyl-5H-[1,2,4]triazolo[4,3-a]quinoxalin-8-yl)-6-fluoro-1H-indol-1-yl]-EtOH], the IC50 or EC50 (antagonist or agonist mode, not stated per compound) is reported as 100 to 1000 nM.
For Cc1nnc2n1-c1c(C#N)c(-c3cccc4c3ccn4C3CC3)cc(F)c1NC2(C)C [Example 450, 8-(1-cyclopropyl-1H-indol-4-yl)-6-fluoro-1,4,4-trimethyl-4,5-dihydro-[1,2,4]triazolo[4,3-a]quinoxaline-9-carbonitrile], the IC50 or EC50 (antagonist or agonist mode, not stated per compound) was under 100 nM.
In the case of Cc1c(-c2cccc3c2cnn3S(C)(=O)=O)c(F)c(F)c2c1-n1c(C)nnc1C(C)(C)N2 [Example 451, 6,7-Difluoro-1,4,4,9-tetramethyl-8-(1-methylsulfonyl-1H-indazol-4-yl)-5H-[1,2,4]triazolo[4,3-a]quinoxaline], the IC50 or EC50 (antagonist or agonist mode, not stated per compound) is reported as 100 to 1000 nM.
For Cc1c(-c2cc(F)cc3c2cnn3S(C)(=O)=O)c(F)c(F)c2c1-n1c(C)nnc1C(C)(C)N2 [Example 452, 6,7-Difluoro-8-(6-fluoro-1-methylsulfonyl-1H-indazol-4-yl)-1,4,4,9-tetramethyl-5H-[1,2,4]triazolo[4,3-a]quinoxaline], the IC50 or EC50 (antagonist or agonist mode, not stated per compound) was under 100 nM.
For Cc1nnc2n1-c1c(CO)c(-c3cc(F)cc4c3ccn4S(C)(=O)=O)cc(F)c1NC2(C)C [Example 453, [6-Fluoro-8-(6-fluoro-1-methylsulfonyl-1H-indol-4-yl)-1,4,4-trimethyl-5H-[1,2,4]triazolo[4,3-a]quinoxalin-9-yl]-MeOH], the IC50 or EC50 (antagonist or agonist mode, not stated per compound) was under 100 nM.
For Cc1c(-c2cc(F)cc3c(C)c[nH]c23)cc(Cl)c2c1-n1c(C)nnc1C(C)(C)N2 [Example 454, 6-Chloro-8-(5-fluoro-3-methyl-1H-indol-7-yl)-1,4,4,9-tetramethyl-5H-[1,2,4]triazolo[4,3-a]quinoxaline], the IC50 or EC50 (antagonist or agonist mode, not stated per compound) was under 100 nM.
